According to US12091601B2 (priority 2020, dated 2024):
Structures can show the parent of a compound that is named as a salt.

Tests used:
[1] = Inhibition and re-activation of HF: quartz dissolution; conditions: by themselves
Protocol: HF was inhibited by the addition of monoethanolamine (MEA), until no quartz (SiO2) was dissolved. A molar ratio of 1 MEA to HF or greater is necessary to inhibit HF's ability to dissolve quartz, and a ratio of 1.1 will used in further testing to provide a reasonable safety margin.
The inhibited HF solution can regain its quartz dissolving potential through the addition of an acidic solution, such as HCl.
To evaluate the performance of mud acids created with acid compositions comprising HCl:MEA in ratios of 4.4:1; 6.3:1; and 11.3:1, inhibited HF mud acids were prepared using HCl and acid compositions comprising HCl:MEA in ratios of 4.4:1; and 11.3:1 with various amount of free HCl (6 to 12%).

[2] = cited from earlier work

Cl [HCl]
quartz dissolved [1]: essentially no quartz

F[Si-2](F)(F)(F)(F)F.[Na+].[Na+] [Na2SiF6]
concentration above which precipitation occurs / solubility [2]: 6400 µg/mL
